Reference: ChEMBL document CHEMBL3885861, “Open TG-GATES”

Species on record: Rattus norvegicus
Assay: Open TG-GATES - Regimen: Daily Repeat
Format: toxicity, organism-based, Sprague-Dawley
Design: regimen Daily Repeat, gender Male, age 6 weeks
Settings: in vivo, po, 0 mg/kg, route gavage, dose level Control; for APTT / Bas / Eos / Fbg / Hb / Ht / Lym / MCH / MCHC / MCV / Mono / Neu / PT / Plat / RBC / Ret / WBC: tissue Blood; for KIDNEY_L / KIDNEY_R / KIDNEY_TOTAL: tissue Kidney; for LIVER: tissue Liver; for A/G / ALP / ALT / AST / BUN / CRE / Ca / Cl / DBIL / GLC / IP / K / LDH / Na / PL / RALB / TBIL / TC / TG / TP / gamma-GTP: tissue Plasma

## Nc1nc(N)c2nc(-c3ccccc3)c(N)nc2n1
72 h, time 3 day
  TERMINAL_BW: 242.6 g
  APTT: 16.3 s
  Bas: 0.2%
  Eos: 1%
  Fbg: 334.2 mg/dL
  Hb: 13.8 g/dL
  Ht: 40.7%
  Lym: 78.8%
  MCH: 20.8 pg
  MCHC: 33.9%
  MCV: 61.3 fL
  Mono: 2.2%
  Neu: 17.2%
  PT: 13.9 s
  Plat: 128.5 x10_4/uL
  RBC: 664.4 x10_4/ul
  Ret: 6.2%
  WBC: 102.2 x10_2/uL
  KIDNEY_L: 1.1 g
  KIDNEY_R: 1.1 g
  KIDNEY_TOTAL: 2.1 g
  LIVER: 11.1 g
  A/G: 0.9
  ALP: 1605.2 IU/L
  ALT: 41.4 IU/L
  AST: 69.4 IU/L
  BUN: 15 mg/dL
  CRE: 0.2 mg/dL
  Ca: 10.9 mg/dL
  Cl: 105.2 meq/L
  DBIL: 0.01 mg/dL
  GLC: 166 mg/dL
  IP: 7.7 mg/dL
  K: 4.1 meq/L
  LDH: 60.2 IU/L
  Na: 142.6 meq/L
  PL: 152.4 mg/dL
  RALB: 2.6 g/dL
  TBIL: 0.042 mg/dL
  TC: 80.6 mg/dL
  TG: 102.4 mg/dL
  TP: 5.6 g/dL
  gamma-GTP: 1 IU/L
[…], time 7 day
  TERMINAL_BW: 286.3 g
  APTT: 18 s
  Bas: 0%
  Eos: 0.6%
  Fbg: 302.8 mg/dL
  Hb: 13.9 g/dL
  Ht: 42.9%
  Lym: 78.8%
  MCH: 20.6 pg
  MCHC: 32.5%
  MCV: 63.6 fL
  Mono: 2.6%
  Neu: 17.6%
  PT: 13.3 s
  Plat: 136.4 x10_4/uL
  RBC: 675.8 x10_4/ul
  Ret: 5.9%
  WBC: 94 x10_2/uL
  KIDNEY_L: 1.2 g
  KIDNEY_R: 1.2 g
  KIDNEY_TOTAL: 2.3 g
  LIVER: 13.7 g
  A/G: 0.9
  ALP: 1612.4 IU/L
  ALT: 43.2 IU/L
  AST: 63.4 IU/L
  BUN: 16.2 mg/dL
  CRE: 0.2 mg/dL
  Ca: 11.1 mg/dL
  Cl: 104.4 meq/L
  DBIL: 0.014 mg/dL
  GLC: 186.2 mg/dL
  IP: 7.7 mg/dL
  K: 4.3 meq/L
  LDH: 63.4 IU/L
  Na: 142.4 meq/L
  PL: 179.4 mg/dL
  RALB: 2.7 g/dL
  TBIL: 0.076 mg/dL
  TC: 90.2 mg/dL
  TG: 133 mg/dL
  TP: 5.8 g/dL
  gamma-GTP: 1 IU/L
[…], time 14 day
  TERMINAL_BW: 328 g
  APTT: 18.4 s
  Bas: 0%
  Eos: 1%
  Fbg: 313.2 mg/dL
  Hb: 14.6 g/dL
  Ht: 44.3%
  Lym: 78.4%
  MCH: 19.5 pg
  MCHC: 33%
  MCV: 59.2 fL
  Mono: 2.6%
  Neu: 18%
  PT: 13.2 s
  Plat: 132.7 x10_4/uL
  RBC: 748 x10_4/ul
  Ret: 3.7%
  WBC: 91.5 x10_2/uL
  KIDNEY_L: 1.2 g
  KIDNEY_R: 1.2 g
  KIDNEY_TOTAL: 2.4 g
  LIVER: 13.8 g
  A/G: 0.8
  ALP: 1497.6 IU/L
  ALT: 34 IU/L
  AST: 60 IU/L
  BUN: 14.6 mg/dL
  CRE: 0.2 mg/dL
  Ca: 10.6 mg/dL
  Cl: 105.6 meq/L
  DBIL: 0.01 mg/dL
  GLC: 191.6 mg/dL
  IP: 7.5 mg/dL
  K: 4 meq/L
  LDH: 60.4 IU/L
  Na: 143 meq/L
  PL: 154.4 mg/dL
  RALB: 2.7 g/dL
  TBIL: 0.068 mg/dL
  TC: 72.8 mg/dL
  TG: 141.6 mg/dL
  TP: 5.9 g/dL
  gamma-GTP: 1 IU/L
[…], time 28 day
  TERMINAL_BW: 424 g
  APTT: 18 s
  Bas: 0.6%
  Eos: 1.2%
  Fbg: 294.6 mg/dL
  Hb: 15.4 g/dL
  Ht: 46.3%
  Lym: 82.6%
  MCH: 18.8 pg
  MCHC: 33.3%
  MCV: 56.5 fL
  Mono: 2.2%
  Neu: 13.6%
  PT: 13 s
  Plat: 111.3 x10_4/uL
  RBC: 819.6 x10_4/ul
  Ret: 2.3%
  WBC: 87 x10_2/uL
  KIDNEY_L: 1.5 g
  KIDNEY_R: 1.4 g
  KIDNEY_TOTAL: 2.9 g
  LIVER: 16.7 g
  A/G: 0.8
  ALP: 1077.6 IU/L
  ALT: 40 IU/L
  AST: 67.4 IU/L
  BUN: 16 mg/dL
  CRE: 0.2 mg/dL
  Ca: 10.8 mg/dL
  Cl: 104.2 meq/L
  DBIL: 0.012 mg/dL
  GLC: 194.8 mg/dL
  IP: 6.5 mg/dL
  K: 3.8 meq/L
  LDH: 76.4 IU/L
  Na: 143.4 meq/L
  PL: 144.8 mg/dL
  RALB: 2.8 g/dL
  TBIL: 0.066 mg/dL
  TC: 68.2 mg/dL
  TG: 149.6 mg/dL
  TP: 6.3 g/dL
  gamma-GTP: 1 IU/L
